Test results: patent publication US7855232B2, “Organoselenium compound for cancer chemoprevention” (LKT Laboratories, Inc., priority 2001, dated 2010)
Marks after values point to notes of the source that are not given here.

Key:
Format in all cases: in vivo, Female A/J mice
[1] = test system: GSH; assay: Glutathione (GSH) concentration in tissues of treated mice, HPLC; conditions: for Ratio Test/con (GSH): gavage; for GSH conc.: gavage in corn oil
Description: GSH was quantitated by modification of the procedure Siller-Cepeda et al. Plant Cell Physiol. 32:1179-1185 (1991). Aliquots of tissue homogenates were mixed with equal volumes of 20% PCA containing 2 mM BPDS. Vortex, centrifuge at 7800×g for 15 minutes at 4° C. and 250 μl supernatant transferred into a microfuge tube containing 25 μl of γ-glu-glu as internal standard. The samples were carboxymethylated with 25 μl of 100 mM iodoacetic acid dissolved in 0.2 mM m-cresol purple sodium salt solution. The pH of the solution was adjusted to 9-10 by adding 350 μl of KOH (2M)-KHCO3 (2.4 M) mixture and incubated in the dark for 15 minutes. After carboxymethylation, the samples were derivatized with 500 μl of 1% dinitrofluorobenzene (DNFB) and kept in the dark at 4° C. overnight. The samples were centrifuged at 13,000×g for 15 minutes, filtered through 0.2 μm filter, and were analyzed with a SHIMADZU two-pump gradient HPLC system. Samples were injected by a SHIMADZU SIL-10AV Autoinjector onto a Varian 3-aminopropyl MICROSORB-MV column (4.6×250 mm) operated at ambient temperature with a flow rate of 1 ml/min. Absorbance of the dinitrophenyl derivatives was monitored at 365 nm. The amount of GSH was calculated from a standard curve using γ-glu-glu as internal standard.

[2] = test system: UDP-Glucuronosyltransferase (UDP-GT); assay: UDP-glucuronosyltransferase (UDP-GT) activity in liver microsomes of treated mice, o-aminophenol substrate; conditions: for Ratio Test/con (UDP-GT): gavage; for UDP-GT activity (column head prints GSH conc.): gavage in corn oil
Description: Microsomal samples were assayed for enzymatic conjugation by modifying the procedure of Zakim et al., Methods of Biochemical Analysis, ed. David Glick, 21:1-37, (1973). using o-aminophenol as the substrate. The complete assay solution contains, in a total volume of 500 μl, 0.25 M phosphate buffer (pH 7.6), 0.002 M o-aminophenol, 0.05 M UDPGA, 0.125 M magnesium chloride and 100 μl microsomes. The mixture was incubated for 30 minutes. Reactions were stopped by the addition of 500 μl of TCA-sodium phosphate reagent. The precipitated protein was removed, 100 μl of 0.05% sodium nitrite was added to 950 μl of the supernatent solution and allowed to stand for 5 minutes. 100 μl of 0.5% ammonium sulfamate was added, after 5 minutes. 100 μl of 0.12% N-(-1-naphthyl)ethylenediamine dihydrochloride was added and incubated for 2 hours in the dark; and the difference in the optical density between the blanks and the samples were recorded at 555 nm in a Beckman model DU65 UV-VIS spectrophotometer. The UDP-GT activity was calculated using the extinction coefficient 29 mM-1 cm-1 for the coupled product.

[3] = test system: Glutathione S-Transferase; assay: Glutathione S-transferase (GST) activity in tissue cytosol of treated mice, CDNB substrate; conditions: for Ratio Test/con (GST): gavage; for GST act.: gavage in corn oil
Description: The activity of cytosolic was assayed according to the method of Habig et al. using 1-chloro-2,4-dinitrobenzene (CDNB) as the substrate. Habig et al, J. Biol. Chem. 249:7130-7139 (1974). The complete solution contains, in a total volume of 2.0 mL, 0.1 M phosphate buffer, pH 6.5, 5 mM glutathione, 1 mM CDNB, and 20 μL of the cytosol. The reaction was monitored at 340 nm in a Beckman Model DU65 UV-VIS spectrophotometer. Assays were performed at 30° C. Complete assay mixture without the cytosolic enzyme was used as the reference blank. Data as analyzed by the Student's “t” test and P values were obtained in comparison to the control.

[4] = liver, dose 0.02 mmol/Kg body weight
[5] = liver, dose 0.04 mmol/Kg body weight
[6] = small intestinal mucosa, dose 0.02 mmol/Kg body weight
[7] = small intestinal mucosa, dose 0.04 mmol/Kg body weight
[8] = colon, dose 0.02 mmol/Kg body weight
[9] = colon, dose 0.04 mmol/Kg body weight
[10] = forestomach, dose 0.02 mmol/Kg body weight
[11] = forestomach, dose 0.04 mmol/Kg body weight
[12] = lung, dose 0.02 mmol/Kg body weight
[13] = lung, dose 0.04 mmol/Kg body weight

For `[Se]=C=NCc1ccc(CN=C=[Se])[se]1` [(7) SDMISC, selenophenyl-2,5-di-methylene isoselenocyanate], the “Ratio Test/con (GSH)” value [1, 4] was 1.30, the GSH conc. [1, 4] was 4.63 ± 1.30 μmol/gm tissue weight and the “Ratio Test/con (GSH)” value [1, 5] was 1.20. The GSH conc. [1, 5] was 4.25 ± 1.02 μmol/gm tissue weight, the “Ratio Test/con (GSH)” value [1, 6] was 1.36 and the GSH conc. [1, 6] was 2.86 ± 0.14^c μmol/gm tissue weight. The “Ratio Test/con (GSH)” value [1, 7] was 1.90, the GSH conc. [1, 7] was 4.00 ± 0.35^d μmol/gm tissue weight and the “Ratio Test/con (UDP-GT)” value ([2]; dose 0.02 mmol/Kg body weight) was 2.56. For the same compound, the “UDP-GT activity (column head prints GSH conc.)” value (“UDP-GT activity” below) ([2]; dose 0.02 mmol/Kg body weight) was 10.37 ± 1.99 ^d nmol/min/mg protein, the “Ratio Test/con (UDP-GT)” value ([2]; dose 0.04 mmol/Kg body weight) was 1.60 and the “UDP-GT activity” value ([2]; dose 0.04 mmol/Kg body weight) was 6.46 ± 1.95 nmol/min/mg protein. For the same compound, the “dose response of GST induction (in words)” value ([3]; colon) was “dose response induction”, the “Ratio Test/con (GST)” value [3, 8] was 1.23 and the GST act. [3, 8] was 0.80 ± 0.03 ^c μmol/min mg protein. For the same compound, the “Ratio Test/con (GST)” value [3, 9] was 1.34, the GST act. [3, 9] was 0.87 ± 0.03 ^e μmol/min mg protein and the “Ratio Test/con (GST)” value [3, 10] was 1.10. The GST act. [3, 10] was 1.22 ± 0.21 μmol/min mg protein, the “Ratio Test/con (GST)” value [3, 11] was 1.14 and the GST act. [3, 11] was 1.27 ± 0.28 μmol/min mg protein. For the same compound, the “Ratio Test/con (GST)” value [3, 4] was 2.39, the GST act. [3, 4] was 3.06 ± 0.41 ^e μmol/min mg protein and the “Ratio Test/con (GST)” value [3, 5] was 2.34. The GST act. [3, 5] was 3.00 ± 0.13 ^c μmol/min mg protein, the “Ratio Test/con (GST)” value [3, 12] was 1.31 and the GST act. [3, 12] was 0.45 ± 0.04 ^f μmol/min mg protein. The “Ratio Test/con (GST)” value [3, 13] was 1.16, the GST act. [3, 13] was 0.40 ± 0.04 μmol/min mg protein and the “Ratio Test/con (GST)” value [3, 6] was 2.26. The GST act. [3, 6] was 0.50 ± 0.14 ^e μmol/min mg protein, the “Ratio Test/con (GST)” value [3, 7] was 2.82 and the GST act. [3, 7] was 0.62 ± 0.04 ^c μmol/min mg protein. For the same compound, the “Ratio Test/con (GST)” value ([3]; small intestinal mucosa, dose 0.04 mmol/Kg body weight, listed as SDMISC 7) was 2.83.

In the case of `N#C[Se]Cc1ccc(C[Se]C#N)[se]1` [(4) SDMSC, selenophenyl-2,5-di-methylene selenocyanate], the “Ratio Test/con (GSH)” value [1, 4] is reported as 0.93, the GSH conc. [1, 4] is reported as 3.58 ± 1.86 μmol/gm tissue weight and the “Ratio Test/con (GSH)” value [1, 5] is reported as 1.39. For the same compound, the GSH conc. [1, 5] was 5.34 ± 1.36 μmol/gm tissue weight, the “Ratio Test/con (UDP-GT)” value ([2]; dose 0.02 mmol/Kg body weight) was 2.30 and the “UDP-GT activity” value ([2]; dose 0.02 mmol/Kg body weight) was 10.17 ± 2.37 ^c nmol/min/mg protein. The “Ratio Test/con (UDP-GT)” value ([2]; dose 0.02 mmol/Kg body weight, listed as SDMSC 4) was 2.67, the “Ratio Test/con (UDP-GT)” value ([2]; dose 0.04 mmol/Kg body weight) was 2.43 and the “UDP-GT activity” value ([2]; dose 0.04 mmol/Kg body weight) was 10.75 ± 2.04 ^d nmol/min/mg protein. The “Ratio Test/con (GST)” value [3, 8] was 1.13, the GST act. [3, 8] was 0.45 ± 0.02 ^g μmol/min mg protein and the “Ratio Test/con (GST)” value [3, 9] was 1.10. The GST act. [3, 9] was 0.44 ± 0.04 μmol/min mg protein, the “Ratio Test/con (GST)” value [3, 10] was 1.35 and the GST act. [3, 10] was 1.05 ± 0.28 μmol/min mg protein. The “Ratio Test/con (GST)” value [3, 11] was 1.21, the GST act. [3, 11] was 0.94 ± 0.18 μmol/min mg protein and the “Ratio Test/con (GST)” value [3, 4] was 1.06. For the same compound, the GST act. [3, 4] was 1.20 ± 0.11 ^g μmol/min mg protein, the “Ratio Test/con (GST)” value [3, 5] was 1.50 and the GST act. [3, 5] was 1.69 ± 0.18 ^e μmol/min mg protein. For the same compound, the “Ratio Test/con (GST)” value [3, 12] was 1.23, the GST act. [3, 12] was 0.58 ± 0.08 μmol/min mg protein and the “Ratio Test/con (GST)” value [3, 13] was 1.17. For the same compound, the GST act. [3, 13] was 0.55 ± 0.07 μmol/min mg protein, the “Ratio Test/con (GST)” value [3, 6] was 1.00 and the GST act. [3, 6] was 0.34 ± 0.01 μmol/min mg protein. The “Ratio Test/con (GST)” value [3, 7] was 1.06 and the GST act. [3, 7] was 0.36 ± 0.02 μmol/min mg protein.

In the case of `N#C[Se]Cc1ccc[se]1` [(3) SMSC, 2-selenophenyl methylene selenocynate], the “Ratio Test/con (GSH)” value [1, 4] is reported as 0.98, the GSH conc. [1, 4] is reported as 3.49 ± 0.90 μmol/gm tissue weight and the “Ratio Test/con (GSH)” value [1, 5] is reported as 1.38. The GSH conc. [1, 5] was 4.89 ± 0.57^c μmol/gm tissue weight, the “Ratio Test/con (GSH)” value [1, 6] was 0.89 and the GSH conc. [1, 6] was 1.88 ± 0.4 μmol/gm tissue weight. For the same compound, the “Ratio Test/con (GSH)” value [1, 7] was 1.00, the “Ratio Test/con (UDP-GT)” value ([2]; dose 0.02 mmol/Kg body weight) was 1.52 and the “UDP-GT activity” value ([2]; dose 0.02 mmol/Kg body weight) was 6.15 ± 1.20 ^d nmol/min/mg protein. For the same compound, the “Ratio Test/con (UDP-GT)” value ([2]; dose 0.04 mmol/Kg body weight) was 2.36, the “UDP-GT activity” value ([2]; dose 0.04 mmol/Kg body weight) was 9.56 ± 4.23 ^d nmol/min/mg protein and the “Ratio Test/con (GST)” value [3, 8] was 1.08. For the same compound, the GST act. [3, 8] was 0.70 ± 0.05 μmol/min mg protein, the “Ratio Test/con (GST)” value [3, 9] was 1.06 and the GST act. [3, 9] was 0.69 ± 0.09 μmol/min mg protein. The “Ratio Test/con (GST)” value [3, 10] was 0.8, the GST act. [3, 10] was 0.89 ± 0.22 μmol/min mg protein and the “Ratio Test/con (GST)” value [3, 11] was 1.01. The GST act. [3, 11] was 1.12 ± 0.19 μmol/min mg protein, the “Ratio Test/con (GST)” value [3, 4] was 0.81 and the GST act. [3, 4] was 1.04 ± 0.18 ^g μmol/min mg protein. The “Ratio Test/con (GST)” value [3, 5] was 1.58, the GST act. [3, 5] was 2.02 ± 0.33 ^e μmol/min mg protein and the “Ratio Test/con (GST)” value [3, 12] was 1.18. For the same compound, the GST act. [3, 12] was 0.40 ± 0.03 ^f μmol/min mg protein, the “Ratio Test/con (GST)” value [3, 13] was 1.00 and the GST act. [3, 13] was 0.34 ± 0.06 μmol/min mg protein. The “Ratio Test/con (GST)” value [3, 6] was 0.86, the GST act. [3, 6] was 0.19 ± 0.5 μmol/min mg protein and the “Ratio Test/con (GST)” value [3, 7] was 0.91. It also gave a GST act. [3, 7] of 0.20 ± 0.02 μmol/min mg protein.
